Reference: patent publication US20250041281A1, “METHOD OF TREATING BILIARY TRACT CANCER” (J-PHARMA CO., LTD., priority 2023, published 2025)
Several values for one entry are separate records, joined by “and”; a condition that tells them apart may be missing. Identical values can stand only once. Entries after “also recorded” stand apart in the source; their conditions may differ.

Key:
[1] = tested on: advanced biliary tract cancer refractory or intolerant to standard chemotherapy; experiment: Phase II randomized placebo-controlled trial, efficacy (PFS by BICR, OS, DCR); format: in vivo, human; set-up: disease control rate (DCR: CR+PR+SD) / Share of disease control patients with high LAT1 expression / Share of disease control patients with low LAT1 expression: concentration or dose not given beside the values
Method: (§1) As Phase II trial of Nanvuranlat, a multicenter, randomized, placebo-controlled, double-blind, parallel-group Phase II trial was conducted at 14 centers in Japan for patients with advanced biliary tract cancer who were refractory or intolerant of standard treatment. Patients were randomized in a 2:1 ratio to receive the drug or placebo using biliary tract cancer (BTC) subtype and resection status as allocation factors. The non-rapid (Slow and/or Intermediate) genotype was set as the NAT2 genotype for selection criteria, and based on the results of the PI study conducted earlier, 25 mg/m2 of Nanvuranlat or placebo was administered intravenously for 5 consecutive days and rested for 9 days (14 days: 1 cycle). Administration of the trial drug was continued until the discontinuation criteria were met. The primary endpoint was progression-free survival using RECIST 1.1 based on Blinded Independent Central Review. Images were obtained every 6 weeks from the start date and at discontinuation. PFS was defined as the date of the first documented progressive disease (PD) or death for any reason after randomization. The primary evaluation was conducted in the full analysis set (FAS) population, which consisted of all biliary tract cancer patients randomized to one of the arms. The safety evaluation was conducted in the SAFETY population, which was randomly assigned to one of the arms and received the trial drug. Nanvuranlat was used as monohydrochloride monohydrate.
Kaplan-Meier estimates corresponding to the event time points are calculated and plotted for each treatment group. Confidence intervals for the Kaplan-Meier estimates are constructed using the log-log method with standard errors approximated by the greenwood formula. Point estimates at the 25%, 50%, and 75% of survival time and 95% confidence intervals are obtained and presented in tabular form. The Brookmeyer and Crowley method is used to construct the confidence intervals for survival time percentiles.
Fitting to a stratified Cox proportional hazards model, the hazard ratio exp((β_drug)Λ) and its 95% confidence interval are estimated and presented in tabular and forest plot form, along with the p-value of the Wald test corresponding to the null hypothesis “β_drug=0; exp(β_drug)=1”.
Stratification factor 1: “Facility,” “Gall bladder cancer and other cancers,” and “Existence or nonexistence of primary tumor resection history” Stratification factor 2: “Biliary tract cancer subtype (intrahepatic biliary tract cancer, extrahepatic biliary tract cancer, […], or duodenal papillary carcinoma)” and “Existence or nonexistence of primary tumor resection history”
This test was a multicenter, randomized, double-blind, placebo-controlled, Phase II trial conducted at 14 major cancer centers/hospitals in Japan. Patients were randomly assigned to the Nanvuranlat or placebo group (2:1), stratified by BTC subtype and whether the primary cancer lesion had been resected, generated by an independent statistical group. Randomization to the two treatment groups was performed by IWRS (Interactive Web-based Response System) and generated by an independent statistical group.
Nanvuranlat 25 mg/m^2/day or placebo was administered intravenously for 5 consecutive days, followed by a 9-day rest period (=14 days: 1 cycle). The trial drug was administered by 90-minute infusion at the investigator's site (all patients were admitted during the first treatment cycle). Patients, drug administrators, and clinical trial coordinators were blinded to trial treatment. Nanvuranlat was used as monohydrochloride monohydrate.
Treatment with additional cycles was to continue until disease progression, the occurrence of other unacceptable toxicities, pregnancy confirmation, death, withdrawal of consent, loss to follow-up, unblinding of the trial, or termination of the trial, as determined by the investigator. […]

[2] = Phase II randomized placebo-controlled trial, safety (adverse events); format: in vivo
Method: as §1, with “The non-rapid (Slow and/or Intermediate) genotype was set as the NAT2 genotype for selection criteria, and based on the results of the PI study conducted earlier, 25 mg/m2 of Nanvuranlat or placebo was administered intravenously for 5 consecutive days and rested for 9 days (14 days: 1 cycle).” left out
The trial drug was administered by 90-minute infusion at the investigator's site (all patients were admitted during the first treatment cycle). Patients, drug administrators, and clinical trial coordinators were blinded to trial treatment. Nanvuranlat was used as monohydrochloride monohydrate.
Secondary endpoint was overall survival (OS), disease control rate (DCR) as assessed by BICR, and safety. […] Blood and urinary concentrations of Nanvuranlat and its metabolite N-acetyl-JPH203 (NAc-JPH203) were evaluated.
The primary efficacy analysis was performed using a full analysis set (FAS) population that included all randomly assigned BTC patients within their designated treatment group. The safety analysis population included all patients who received at least one trial treatment (safety population).
Statistics were used to summarize safety data, response rates, pharmacokinetic and pharmacodynamic data. Unless otherwise specified, all reported p-values are one-sided. Statistical analysis was performed using SAS software (version 9.4).

[3] = cited from earlier work

## Nc1cc(COc2c(Cl)cc(C[C@H](N)C(=O)O)cc2Cl)c2oc(-c3ccccc3)nc2c1 [Nanvuranlat, O-(5-amino-2-phenylbenzoxazol-7-yl)methyl-3,5-dichloro-L-tyrosine]
[1]; FAS all patients n=104, 25 mg/m2 iv 5 days, 9 days rest
  PFS hazard ratio (HR) by BICR vs placebo: 0.557
[1]; FAS, Nanvuranlat group n=69
  Median PFS: 46.0 days
  progression-free survival rate at 1.5 months: 53.6% and 62.3%
  progression-free survival rate at 3 months: 14.5% and 23.2%
[1]; IHC, LAT1 high
  Overall survival HR vs placebo, LAT1 high-expressing subgroup with IHC: 0.35
[1]; LAT1 score 0
  Number of patients with controlled diseases, LAT1 score 0: 1
[1]; LAT1 score 1
  Number of patients with controlled diseases, LAT1 score 1: 2
[1]; LAT1 score 2
  Number of patients with controlled diseases, LAT1 score 2: 0
[1]; LAT1 score 3
  Number of patients with controlled diseases, LAT1 score 3: 0
[1]; LAT1 score 4
  Number of patients with controlled diseases, LAT1 score 4: 2
[1]; LAT1 score 4-9, n=65
  PFS HR by BICR vs placebo, LAT1 high expression subgroup: 0.439
[1]; LAT1 score 6
  Number of patients with controlled diseases, LAT1 score 6: 4
[1]; LAT1 score 9
  Number of patients with controlled diseases, LAT1 score 9: 5
[1]; Nanvuranlat group, LAT1 high
  Number of disease control patients with high LAT1: 11
[1]; Nanvuranlat group, total
  Number of patients with controlled diseases: 17
[1]; by BICR, Nanvuranlat group
  disease control rate (DCR: CR+PR+SD): 24.6%
[1]; extrahepatic biliary tract cancer, 95% CI in brackets
  PFS HR vs placebo, subgroup EHC: 0.150 (0.0437-0.5153)
[1]; full population of FAS
  Overall survival HR vs placebo: 0.849
[1]; gall bladder cancer, 95% CI in brackets
  PFS HR vs placebo, subgroup GBC: 0.287 (0.1009-0.8183)
[1]; intrahepatic biliary tract cancer, 95% CI in brackets
  PFS HR vs placebo, subgroup IHC: 0.872 (0.4359-1.7458)
[1]; of 17 disease control patients
  Share of disease control patients with high LAT1 expression: 64.7%
  Share of disease control patients with low LAT1 expression: 17.6%
[1]; only patients with high LAT1
  Overall survival HR vs placebo, high LAT1: 0.670
[1]; patients with GBC/EHC
  PFS HR vs placebo, EHC and GBC integrated: 0.218
[2]; fatigue, decreased platelet count, hypertension
  Grade 3 or higher treatment-related adverse events: three
[2]; n = 70
  Abdominal discomfort, All grades: 2 (2.9%) n (%)
  At least one adverse event, All grades: 60 (85.7%) n (%)
  At least one adverse event, ≥ Grade 3: 21 (30.0%) n (%)
  Blood creatinine elevation, All grades: 1 (1.4%) n (%)
  Cancer pain, All grades: 6 (8.6%) n (%)
  Cancer pain, ≥ Grade 3: 1 (1.4%) n (%)
  Cholangitis, All grades: 10 (14.3%) n (%)
  Cholangitis, ≥ Grade 3: 9 (12.9%) n (%)
  Constipation, All grades: 10 (14.3%) n (%)
  Diarrhea, All grades: 8 (11.4%) n (%)
  Diarrhea, ≥ Grade 3: 1 (1.4%) n (%)
  Fatigue, All grades: 1 (1.4%) n (%)
  Fever, All grades: 9 (12.9%) n (%)
  High blood pressure, All grades: 5 (7.1%) n (%)
  High blood pressure, ≥ Grade 3: 2 (2.9%) n (%)
  Hypophagia, All grades: 16 (22.9%) n (%)
  Insomnia, All grades: 8 (11.4%) n (%)
  Malaise, All grades: 11 (15.7%) n (%)
  Malaise, ≥ Grade 3: 1 (1.4%) n (%)
  Nasopharyngitis, All grades: 1 (1.4%) n (%)
  Nausea, All grades: 9 (12.9%) n (%)
  Pruritus, All grades: 5 (7.1%) n (%)
  Rash, All grades: 2 (2.9%) n (%)
  Stomatitis, All grades: 4 (5.7%) n (%)
  Tumor pain, All grades: 1 (1.4%) n (%)
  Vomiting, All grades: 5 (7.1%) n (%)
[2]; safety population n=70
  adverse events of Grade 3 or higher: 30.0%
  frequency of all adverse events: 85.7%
  serious adverse events: 21.4%
  treatment-related adverse events: 41.4%
[2]; trial observation period
  discontinuations or dose reductions: no discontinuations or dose reductions; also recorded: Neither discontinuations nor dose reductions were considered as treatment related
  treatment-related deaths: no deaths suspected to be related to Nanvuranlat; also recorded: No treatment-related deaths; also recorded: no deaths or discontinuations linked to treatment
[3]; 17 patients with solid tumors
  maximum tolerated dose: 60 mg/m^2
[3]; only in patients with the Rapid form of NAT2
  Grade 3 hepatic dysfunction, number of patients: two
